Measurements reported in article PMC9964117, “Inhibitors against Two PDZ Domains of MDA-9 Suppressed Migration of Breast Cancer Cells” (International Journal of Molecular Sciences, 2023).
Residue numbers refer to the chain shown, from its start. Where two headings read alike, the source gives them in different places.

Columns and labels:
MDA-9 PDZ1 domain [1] = molecular target: T1, MDA-9 PDZ1 domain (Homo sapiens, UniProt O00560); design: method as in PMID 28011764; details: read-out: Affinity for MDA-9 PDZ1 domain; cited from earlier work
T1 construct: the N-terminal (1–109aa), PDZ1 (110–193aa), PDZ2 (194–274aa); made in house
T1 sequence (O00560 110-193): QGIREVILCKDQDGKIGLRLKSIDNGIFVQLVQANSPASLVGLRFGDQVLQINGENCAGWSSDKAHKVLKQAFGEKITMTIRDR

MDA-9 PDZ2 domain [2] = molecular target: T2, MDA-9 PDZ2 domain (Homo sapiens, UniProt O00560); details: cited from earlier work
T2 construct: PDZ1 (110–193aa), PDZ2 (194–274aa), and the C-terminal (275–298aa); made in house
T2 sequence (O00560 194-274): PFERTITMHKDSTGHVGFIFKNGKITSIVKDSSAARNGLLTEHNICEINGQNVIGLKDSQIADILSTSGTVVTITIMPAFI

glioma cells = system: glioma cells; design: method as in PMID 28011764; details: cited from earlier work
brain-tumor-bearing mice = system: brain-tumor-bearing mice; design: method as in PMID 28011764; details: cited from earlier work
[3] = system: prostate cancer or neuroblastoma; design: method as in PMID 31406249, PMID 31345950; details: cited from earlier work
MDA-9 PDZ1 domain [4] = molecular target: T1, MDA-9 PDZ1 domain; assay: NMR chemical shift perturbation titration (1H-15N HSQC); details: 25 °C, pH 7.0, read-out: Binding affinity (Kd) to MDA-9 PDZ1 domain from dose-dependent CSPs
Method: (§1) NMR fragment-based screening was performed at 25 °C using an Agilent 700 MHZ spectrometer equipped with a 96-well autosampler (Agilent Technologies, Santa Clara, CA, USA). ^1H-^15N HSQC spectra were acquired from the ^15N-labeled MDA-9 PDZ1 and PDZ2 domains (0.05 mM). A fragment library of 890 compounds (Chembridge, SanDiego, CA, USA) and an approved drug library of 540 compounds (TargetMol, Boston, MA, USA) were pooled into cocktails, respectively, and each cocktail contained 10 compounds at 0.2 mM [39, 40]. The ^1H-^15N HSQC spectra were measured on an Agilent 700 MHz spectrometer at ligand/protein molar ratios ranging from 0.0 to 4.0.
(§2) The ^15N-labelled PDZ1 and PDZ2 domains of MDA-9 were concentrated in the HEPES buffer (20 mM HEPES, 100 mM NaCl, 1 mM EDTA, 1 mM DTT, pH 7.0) to 0.05 mmol/L. The screening fragment compounds were then titrated to these ^15N-labeled MDA-9 PDZ1 or PDZ2 domain, respectively. Each HSQC profile was collected (at molar ratios of 0.0, 2.0, 4.0, 8.0, 16.0, and 32.0 at 25 °C) using an Agilent 700 MHz spectrometer. NMR spectra were analyzed using Sparky. The chemical shift changes (Δδ), relative to the free form of the PDZ1 or PDZ2 domain, were calculated as follows:(1) Δδ=(∆δH^1)^2+(0.2ΔδN^15)^2 where ∆δH^1 and ΔδN^15 denote the chemical shift changes of ^1H and ^15N, respectively. […]

MDA-9 PDZ2 domain [5] = molecular target: T2, MDA-9 PDZ2 domain; assay: as above; format: binding
Method: as §1, §2

[6] = molecular target: T3, A255V mutant of MDA-9 PDZ2 domain (Homo sapiens, UniProt O00560, A255V); assay: NMR CSP titration against mutant; format: binding
T3 construct: PDZ1 (110–193aa), PDZ2 (194–274aa), and the C-terminal (275–298aa); made in house
T3 sequence (O00560 194-274 A255V): T2 sequence (O00560 194-274) with A62V
Method: (§3) The ^15N-labelled PDZ1 and PDZ2 domains of MDA-9 were concentrated in the HEPES buffer (20 mM HEPES, 100 mM NaCl, 1 mM EDTA, 1 mM DTT, pH 7.0) to 0.05 mmol/L. The screening fragment compounds were then titrated to these ^15N-labeled MDA-9 PDZ1 or PDZ2 domain, respectively. Each HSQC profile was collected (at molar ratios of 0.0, 2.0, 4.0, 8.0, 16.0, and 32.0 at 25 °C) using an Agilent 700 MHz spectrometer. NMR spectra were analyzed using Sparky. The chemical shift changes (Δδ), relative to the free form of the PDZ1 or PDZ2 domain, were calculated as follows:(1) Δδ=(∆δH^1)^2+(0.2ΔδN^15)^2 where ∆δH^1 and ΔδN^15 denote the chemical shift changes of ^1H and ^15N, respectively.
(§4) According to this equation, the binding constants can be best fitted with a binding mode of 1:1: Δδobs=Δδmax([P]t+[L]t+Kd)−([P]t+[L]t+Kd)^2−4[P]t[L]t/2[P]t where [P]t and [L]t represent the concentrations of the protein and ligand, respectively. Δδobs represents the observed chemical shift changes, relative to the free-state protein.

[7] = molecular target: T4, G210A mutant of MDA-9 PDZ2 domain (Homo sapiens, UniProt O00560, G210A); assay: NMR CSP titration against mutant; format: binding; details: relative to wild type
T4 construct: PDZ1 (110–193aa), PDZ2 (194–274aa), and the C-terminal (275–298aa); made in house
T4 sequence (O00560 194-274 G210A): T2 sequence (O00560 194-274) with G17A
Method: as §3, §4

[8] = molecular target: T5, H208A mutant of MDA-9 PDZ2 domain (Homo sapiens, UniProt O00560, H208A); assay: NMR CSP titration against mutant; format: binding
T5 construct: PDZ1 (110–193aa), PDZ2 (194–274aa), and the C-terminal (275–298aa); made in house
T5 sequence (O00560 194-274 H208A): T2 sequence (O00560 194-274) with H15A
Method: as §3, §4

[9] = molecular target: T6, V209A mutant of MDA-9 PDZ2 domain (Homo sapiens, UniProt O00560, V209A); assay: NMR CSP titration against mutant; format: binding; details: relative to wild type
T6 construct: PDZ1 (110–193aa), PDZ2 (194–274aa), and the C-terminal (275–298aa); made in house
T6 sequence (O00560 194-274 V209A): T2 sequence (O00560 194-274) with V16A
Method: as §3, §4

[10] = molecular target: T7, V209I mutant of MDA-9 PDZ2 domain (Homo sapiens, UniProt O00560, V209I); assay: NMR CSP titration against mutant; format: binding
T7 construct: PDZ1 (110–193aa), PDZ2 (194–274aa), and the C-terminal (275–298aa); made in house
T7 sequence (O00560 194-274 V209I): T2 sequence (O00560 194-274) with V16I
Method: as §3, §4

[11] = molecular target: T8, MTSL-labeled C239S/D256C mutant of MDA-9 PDZ2 domain (Homo sapiens, UniProt O00560, C239S/D256C); assay: NMR CSP titration against MTSL-labeled mutant; format: binding; details: dose-dependent CSP
T8 construct: PDZ1 (110–193aa), PDZ2 (194–274aa), and the C-terminal (275–298aa); made in house
T8 sequence (O00560 194-274 C239S/D256C): T2 sequence (O00560 194-274) with C46S, D63C
Method: as §3, §4
(§5) The ^15N-labeled PDZ1 C118/C166S mutant and the PDZ2 C239S/D256C mutant were expressed by the method described above. After the dilution of the protein solution to 0.5 mg/mL with a 1-fold excess of Tris(2-carboxyethyl) phosphine (TCEP), the solution was incubated for 2 h at room temperature. […] WATERGATE spectra with T2 delays of 0.04 and 0.8 s were recorded. […]

MDA-9 PDZ2 domain [12] = molecular target: T2, MDA-9 PDZ2 domain; assay: Competitive fluorescence polarization with FITC-peptide; details: 250 μM PDZ2, 500 nM FITC-peptide; read-out: Binding affinity to PDZ2 from competitive FP
Method: (§6) For competitive FP experiments with the FITC-peptide, the PDZ1 domain concentration was set at 80 μM and the PDZ2 domain concentration at 250 μM. After that, each aliquot of the 200 μL sample contained 500 nM of the FITC-peptide, 80 μM of the PDZ1 or 250 μM of the PDZ2 domain, as well as different concentrations of PI1A or PI2A. A concentration range of 0–200 μM was administered for PI1A while a concentration range of 0–600 μM was administered for PI2A. Samples were repeated 3 times for each experimental group. The dissociation constants for the interactions between ligands and proteins were derived from the complete competitive FP equation proposed by Gerhard Wagner et al. (Biochemistry 2004). […]

MDA-MB-231 cells [13] = assay: CCK8 cell viability assay; format: cell-based; details: 48 h treatment
Method: The MDA-MB-231 cells were obtained by a gift. CCK8 assay was used to assess the effects of PI1A or PI2A on the viability of MDA-MB-231 cells. Cells were placed in 96-well plates and treated with different concentrations of DMSO, PI1A, or PI2A for 48 h. Then, 10 μL of CCK8 solution was added to the wells. The 96-well plates were incubated in a CO2 incubator at 37 °C for another 1 h. OD values were measured at 450 nm using a CLARIOstar (BMG LABTECH) plate reader.

MDA-MB-231 cells [14] = assay: Wound-healing assay; format: cell-based; details: 100 μM each compound, 0 and 24 h, relative to DMSO
Method: MDA-MB-231 cells were spread in 6-well plate culture dishes, where sh-MDA-9 cells were used as a positive control. DMSO (control), PI1A 100 μM, PI2A 100 μM, and both PI1A and PI2A 100 μM were added to the MDA-MB-231 cells, respectively. On newly grown monolayer cells, […] of the tip was used to line the central area of cell growth. Next, excess cells were washed away with PBS buffer. The cells were then cultured for the experimentally-determined period of time (0 h or 24 h). Lastly, the cell culture plates were removed separately and the peripheral cells were observed under a microscope to determine whether they had migrated to the scratched area.

[15] = molecular target: T9, MTSL-labeled C118/C166S mutant of MDA-9 PDZ1 domain (Homo sapiens, UniProt O00560, C166S); assay: NMR CSP titration against MTSL-labeled mutant; details: dose-dependent CSP, read-out: Binding affinity to MTSL-labeled C118/C166S mutant of PDZ1
T9 construct: the N-terminal (1–109aa), PDZ1 (110–193aa), PDZ2 (194–274aa); made in house
T9 sequence (O00560 110-193 C166S): T1 sequence (O00560 110-193) with C57S
Method: as §3, §4, §5

MDA-9 PDZ1 domain [16] = molecular target: T1, MDA-9 PDZ1 domain; assay: Competitive fluorescence polarization with FITC-peptide; details: 80 μM PDZ1, 500 nM FITC-peptide; read-out: Binding affinity to PDZ1 from competitive FP
Method: as §6

Row | Structure (SMILES) | Kd (MDA-9 PDZ1 domain [1]) | Binding to MDA-9 PDZ2 domain (in words) (MDA-9 PDZ2 domain [2]) | Invasion of glioma cells (glioma cells) | Survival rate in brain-tumor-bearing mice (brain-tumor-bearing mice) | In vivo activity against prostate cancer or neuroblastoma [3] | Kd (MDA-9 PDZ1 domain [4]) | Kd (MDA-9 PDZ2 domain [5]; 25 °C, pH 7.0, read-out: Binding affinity (Kd) to MDA-9 PDZ2 domain by NMR titration) | Kd [6] | Binding affinity to G210A mutant of PDZ2 (in words) [7] | Binding to H208A mutant of PDZ2 (in words) [8] | Binding affinity to V209A mutant of PDZ2 (in words) [9] | Kd [10] | Effect of MTSL labeling of C239S/D256C PDZ2 mutant on inhibitor binding affinity (in words) [11] | Kd (MDA-9 PDZ2 domain [12]) | Toxicity / viability of MDA-MB-231 cells (CCK8) (MDA-MB-231 cells [13]) | Migration of MDA-MB-231 cells (wound closure) (MDA-MB-231 cells [14]) | Binding to MDA-9 PDZ2 domain (in words) (MDA-9 PDZ2 domain [5]) | Kd [15] | Kd (MDA-9 PDZ1 domain [16])
1 | Cc1cc(NC(=O)c2nc3nc4c(c(=O)n3[nH]2)CCC4)c(C)cc1NC(=O)CCc1nnc(-c2ccccc2)o1 [PDZ1i] | 21 µM | did not bind significantly | inhibited the invasion | improved survival rate | exhibited in vivo activity |  |  |  |  |  |  |  |  |  |  |  |  |  | 
2 | O=C(O)c1cc(-c2ccc(F)cc2)n[nH]1 [PI2A] |  |  |  |  |  | > 1000 µM | 500 µM | > 5000 µM | reduced binding affinities | incapable of binding | reduced binding affinities | > 5000 µM | did not disrupt | 510 µM | not toxic | suppressed the migration |  |  | 
3 | Cc1cc(Nc2ccccc2C(=O)O)ccc1Cl [PI1A] |  |  |  |  |  | 110 µM |  |  |  |  |  |  |  |  | not toxic | suppressed the migration | did not bind | 250 µM | 170 µM
